Data reported in patent US6472384B1, “Antimicrobial compounds” (Sankyo Company, Limited, priority 1998, dated 2002).
≈ marks a conversion by molar mass, not a printed value.

How the values were obtained:
[1] = system: Mycobacterium smegmatis Strain SANK 75075; test: Minimum inhibitory concentration against Mycobacterium smegmatis (agar plate dilution); type: cell-based; conditions: Mycolicibacterium smegmatis; Mycobacterium smegmatis SANK 75075; nutrient agar containing 5% glycerol; 37° C. for 18 hours
Method: The minimum inhibitory concentration of preferred compounds of the invention against Mycobacterium smegmatis Strain SANK 75075 was determined in accordance with the process described below. The concentration of the compound to be tested was set at four stages by four-fold dilution starting from 1000 μg/ml (1000 μg/ml, 250 μg/ml, 62 μg/ml and 15 μg/ml). A 1 ml portion of the diluted sample of each stage was poured into a Petri dish (“Terumo Petri dish”, 90×20 mm). A nutrient agar medium (9 ml, product of Eiken Chemical) containing 5% glycerol was added and they were mixed to prepare a plate medium. A test microorganism Mycobacterium smegmatis SANK 75075 was precultured overnight at 37° C. on a trypto-soy broth (T.S.B) medium (product of Eiken Chemical) containing 5% glycerol. On the testing day, the microorganism solution was diluted 100-fold with T.S.B. and one loopful of the diluted culture was streaked onto the plate medium. After cultivation at 37° C. for 18 hours, the minimum concentration (MIC) of the test substance inhibiting the growth of the microorganism was determined.

[2] = system: Mycobacterium smegmatis SANK 75075; test: Disk assay against Mycobacterium smegmatis; type: cell-based; conditions: Mycolicibacterium smegmatis, SANK75075, 40 μg of test substance per paper disk of 8 mm, read-out: inhibitory zone (circle) diameter
Excerpt: Compound A-500359E, Compound A-500359F, the amide derivative of Compound A-500359F, Compound A-500359H, Compound A-500359J and Compound A-500359M-3 of the present invention thus available are novel compounds which have not been described in the literature. Their growth inhibitory activity against general gram positive bacteria or gram negative bacteria can be determined by the disk assay method using normal agar medium (product of Eiken Chemical) or heart infusion agar medium (product of Difco Laboratories). Growth inhibitory activity against Mycobacteria, gram positive bacteria belonging to the Actinonycetales, can be determined similarly on the above-described medium added further with glycerin.
So-called disk assay was conducted using 40 μg of a test substance per paper disk of 8 mm.
So-called Disk assay (“Experimental Agricultural Chemistry”. ed. by Agricultural Chemistry Class/Agriculture Dept./Tokyo Univ., 3rd edition, Volume II, published by Asakura Shoten in 1978) was conducted using 40 μg of a test substance per paper disk of 8 mm.

[3] = Solubility (physico-chemical properties); type: physicochemical
[4] = system: Mycobacterium avium Strain NIHJ1605; test: Minimum inhibitory concentration against Mycobacterium avium (broth dilution); type: cell-based; conditions: NIHJ1605, 144 h; Mycobacterium avium NIHJ 1605; Middleblook 7H9 broth; aerobic culture at 37° C. for 6 days

Row | Compound | MIC [1] [mg/L] | zone of inhibition at 40 µg/disc [2] [mm] | Solubility in chloroform [3] | Solubility in methanol [3] | Solubility in normal hexane [3] | Solubility in water [3] | MIC [4] [mg/L]
1 | CCCCCCCCCC(=O)O[C@@H]1[C@H](OC)[C@@H]([C@@H](O[C@H]2OC(C(=O)N[C@H]3CCC[C@@H](C)NC3=O)=C[C@H](O)[C@@H]2O)C(N)=O)O[C@H]1n1ccc(=O)[nH]c1=O [Exemp. Compound No. 7] | 6.2 (≈ 8.4 µM) |  |  |  |  |  | 
2 | CCCCCCCCCCCCCCCC(=O)O[C@@H]1[C@H](OC)[C@@H]([C@@H](O[C@H]2OC(C(=O)N[C@H]3CCC[C@@H](C)NC3=O)=C[C@H](O)[C@@H]2O)C(N)=O)O[C@H]1n1ccc(=O)[nH]c1=O [Exemp. Compound No. 11] | 6.2 (≈ 7.54 µM) |  |  |  |  |  | 
3 | CCCCCCCCC(=O)O[C@@H]1[C@H](OC)[C@@H]([C@@H](O[C@H]2OC(C(=O)N[C@H]3CCC[C@@H](C)NC3=O)=C[C@H](O)[C@@H]2O)C(N)=O)O[C@H]1n1ccc(=O)[nH]c1=O [Exemp. Compound No. 6] | 3.1 (≈ 4.28 µM) |  |  |  |  |  | 
4 | C=CCC(NC(=O)C1=CC(O)C(O)C(OC(C(N)=O)C2OC(n3ccc(=O)[nH]c3=O)C(O)C2OC)O1)C(=O)O (stereo not drawn) [A-500359M-3] |  | 12 | insoluble | soluble | insoluble | soluble | 
5 | CO[C@H]1[C@@H](O)[C@H](n2ccc(=O)[nH]c2=O)O[C@@H]1[C@@H](O[C@H]1OC(C(=O)N[C@H]2CCCCNC2=O)=C[C@H](O)[C@@H]1O)C(N)=O [Capuramycin, capuramycin, reference compound] | 12.5 (≈ 21.9 µM) |  |  |  |  |  | 8 (≈ 14 µM)
6 | NC(=O)C(OC1OC(C(=O)O)C(O)C(O)C1O)C1OC(n2ccc(=O)[nH]c2=O)C(O)C1O (stereo not drawn) [A-500359J] |  |  | insoluble | slightly soluble | insoluble | soluble | 
7 | CCCCCCCCCCCCCCCC(=O)O[C@@H]1[C@H](OC)[C@@H]([C@@H](O[C@H]2OC(C(=O)N[C@H]3CCCCNC3=O)=C[C@H](O)[C@@H]2O)C(N)=O)O[C@H]1n1ccc(=O)[nH]c1=O [Exemp. Compound No. 53] | 6.2 (≈ 7.67 µM) |  |  |  |  |  | 
8 | CCCCCCC(=O)O[C@@H]1[C@@H](O[C@@H](C(N)=O)[C@H]2O[C@@H](n3ccc(=O)[nH]c3=O)[C@H](O)[C@@H]2OC)OC(C(=O)N[C@H]2CCCCNC2=O)=C[C@@H]1OC(=O)CCCCCC [Exemp. Compound No. 280] | 3.1 (≈ 3.9 µM) |  |  |  |  |  | 
9 | COC1C(O)C(n2ccc(=O)[nH]c2=O)OC1C(OC1OC(C(N)=O)=CC(O)C1O)C(N)=O (stereo not drawn) [amide derivative of compound A-500359F] |  | 12 | insoluble | slightly soluble | insoluble | soluble | 
10 | COC1C(O)C(n2ccc(=O)[nH]c2=O)OC1C(OC1OC(C(=O)O)=CC(O)C1O)C(N)=O (stereo not drawn) [A-500359F] |  |  | insoluble | slightly soluble | insoluble | soluble | 
11 | NC(=O)C(OC1OC(C(=O)O)=CC(O)C1O)C1OC(n2ccc(=O)[nH]c2=O)C(O)C1O (stereo not drawn) [A-500359H] |  |  | insoluble | slightly soluble | insoluble | soluble | 
12 | CO[C@H]1[C@@H](OC(=O)CC(c2ccccc2)c2ccccc2)[C@H](n2ccc(=O)[nH]c2=O)O[C@@H]1[C@@H](O[C@H]1OC(C(=O)N[C@H]2CCC[C@@H](C)NC2=O)=C[C@H](O)[C@@H]1O)C(N)=O [Exemp. Compound No. 21] | 6.2 (≈ 7.83 µM) |  |  |  |  |  | 
13 | CCCCCCCCCCCCCCCC(=O)O[C@H]1C=C(C(=O)N[C@H]2CCCCNC2=O)O[C@H](O[C@@H](C(N)=O)[C@H]2O[C@@H](n3ccc(=O)[nH]c3=O)[C@H](O)[C@@H]2OC)[C@H]1O [Exemp. Compound No. 135] | 1.5 (≈ 1.86 µM) |  |  |  |  |  | 
14 | COC(=O)C1=CC(O)C(O)C(OC(C(N)=O)C2OC(n3ccc(=O)[nH]c3=O)C(O)C2OC)O1 (stereo not drawn) [A-500359E] |  | 12 | insoluble | slightly soluble | insoluble | soluble | 
